Results taken from ChEMBL document CHEMBL1150950, “Antimicrobial activity of 8-alkyl- and 8-phenyl-substituted berberines and their 12-bromo derivatives” (1998).

Experiments:
Staphylococcus aureus = experiment: Antibacterial activity against Staphylococcus aureus after 24 hrs by serial broth dilution test; assay type: functional
Bacillus subtilis = experiment: Antibacterial activity against Bacillus subtilis after 24 hrs by serial broth dilution test; assay type: functional
Salmonella enteritidis = experiment: Antibacterial activity against Salmonella enteritidis after 24 hrs by serial broth dilution test; assay type: functional, Salmonella enterica subsp. enterica serovar Enteritidis; conditions: Salmonella enterica
Escherichia coli = experiment: Antibacterial activity against Escherichia coli IFO 026 after 24 hrs by serial broth dilution test; assay type: functional; conditions: IFO 026, 24 h
Candida albicans = experiment: Antifungal activity against Candida albicans IFO 1061 after 48 hrs by serial broth dilution test; assay type: functional; conditions: IFO 1061, 48 h

SMILES | MIC (Staphylococcus aureus) | MIC (Bacillus subtilis) | MIC (Salmonella enteritidis) | MIC (Escherichia coli) | MIC (Candida albicans)
COc1cc(Br)c2cc3[n+](cc2c1OC)CCc1cc2c(cc1-3)OCO2.[Cl-] | 125 µg/mL | 125 µg/mL | 125 µg/mL | > 500 µg/mL | 500 µg/mL
CCCc1c2c(OC)c(OC)cc(Br)c2cc2[n+]1CCc1cc3c(cc1-2)OCO3.[Cl-] | 15.6 µg/mL | 15.6 µg/mL | 15.6 µg/mL | 500 µg/mL | 125 µg/mL
CCc1c2c(OC)c(OC)ccc2cc2[n+]1CCc1cc3c(cc1-2)OCO3.[Cl-] | 62.5 µg/mL | 125 µg/mL | 62.5 µg/mL | > 500 µg/mL | 125 µg/mL
CCCCc1c2c(OC)c(OC)cc(Br)c2cc2[n+]1CCc1cc3c(cc1-2)OCO3.[Cl-] | 7.8 µg/mL | 7.8 µg/mL | 15.6 µg/mL | 250 µg/mL | 62.5 µg/mL
CCCCCCc1c2c(OC)c(OC)cc(Br)c2cc2[n+]1CCc1cc3c(cc1-2)OCO3.[Cl-] | 3.9 µg/mL | 3.9 µg/mL | 3.9 µg/mL | 125 µg/mL | 15.6 µg/mL
COc1ccc2cc3[n+](c(-c4ccccc4)c2c1OC)CCc1cc2c(cc1-3)OCO2.[Cl-] | 62.5 µg/mL | 62.5 µg/mL | 125 µg/mL | > 500 µg/mL | 250 µg/mL
COc1ccc2cc3[n+](c(C)c2c1OC)CCc1cc2c(cc1-3)OCO2.[Cl-] | 125 µg/mL | 250 µg/mL | 125 µg/mL | > 500 µg/mL | 250 µg/mL
CCCCc1c2c(OC)c(OC)ccc2cc2[n+]1CCc1cc3c(cc1-2)OCO3.[Cl-] | 15.6 µg/mL | 31.2 µg/mL | 31.2 µg/mL | 500 µg/mL | 250 µg/mL
COc1ccc2cc3[n+](cc2c1OC)CCc1cc2c(cc1-3)OCO2.[Cl-] [BERBERINE CHLORIDE] | 250 µg/mL | 1000 µg/mL | 500 µg/mL | > 2000 µg/mL | 500 µg/mL

More lines, now with the values ahead:

MIC (Staphylococcus aureus) | MIC (Bacillus subtilis) | MIC (Salmonella enteritidis) | MIC (Escherichia coli) | MIC (Candida albicans) | SMILES
31.2 µg/mL | 31.2 µg/mL | 31.2 µg/mL | 500 µg/mL | 250 µg/mL | CCc1c2c(OC)c(OC)cc(Br)c2cc2[n+]1CCc1cc3c(cc1-2)OCO3.[Cl-]
31.2 µg/mL | 31.2 µg/mL | 31.2 µg/mL | 500 µg/mL | 250 µg/mL | COc1cc(Br)c2cc3[n+](c(-c4ccccc4)c2c1OC)CCc1cc2c(cc1-3)OCO2.[Cl-]
31.2 µg/mL | 62.5 µg/mL | 31.2 µg/mL | 500 µg/mL | 250 µg/mL | CCCc1c2c(OC)c(OC)ccc2cc2[n+]1CCc1cc3c(cc1-2)OCO3.[Cl-]
31.2 µg/mL | 3.9 µg/mL | 62.5 µg/mL | 31.2 µg/mL | > 2000 µg/mL | NC[C@H]1O[C@H](O[C@H]2[C@H](O)[C@@H](O[C@H]3O[C@H](CO)[C@@H](O)[C@H](N)[C@H]3O)[C@H](N)C[C@@H]2N)[C@H](O)[C@@H](O)[C@@H]1O.O=S(=O)(O)O [KANAMYCIN SULFATE]
